Reference: ChEMBL document CHEMBL4145553, “Design, synthesis, and biological evaluation of novel amide and hydrazide based thioether analogs targeting Histone deacteylase (HDAC) enzymes” (Eur J Med Chem, 2018)

Columns and labels:
786-0 = test: Growth inhibition of human 786-0 cells at 10 uM incubated for 48 hrs by sulforhodamine B assay relative to control; type: functional; conditions: 786-0, 48 h, values are per cent of control
HL-60(TB) [1] = test: Growth inhibition of human HL-60(TB) cells assessed as cell growth at 10^-5 M incubated for 48 hrs by sulforhodamine B assay relative to control; type: functional; conditions: HL-60, 48 h, read-out: Activity
OVCAR-3 = test: Growth of human OVCAR3 cells at 10 uM incubated for 48 hrs by sulforhodamine B assay relative to control; conditions: OVCAR-3, 48 h
HL-60(TB) [2] = test: Growth inhibition of human HL-60(TB) cells at 10 uM incubated for 48 hrs by sulforhodamine B assay relative to control; type: functional; conditions: HL-60, 48 h, values are per cent of control
MOLT-4 = test: Growth of human MOLT4 cells at 10 uM incubated for 48 hrs by sulforhodamine B assay relative to control; conditions: MOLT-4, 48 h
HT-29 [3] = test: Growth inhibition of human HT-29 cells assessed as cell growth at 10^-7 M incubated for 48 hrs by sulforhodamine B assay relative to control; type: functional; conditions: HT-29, 48 h, read-out: Activity
SN12C = test: Growth inhibition of human SN12C cells at 10 uM incubated for 48 hrs by sulforhodamine B assay relative to control; type: functional; conditions: values are per cent of control
RPMI-8226 = test: Growth of human RPMI8226 cells at 10 uM incubated for 48 hrs by sulforhodamine B assay relative to control; conditions: RPMI-8226, 48 h
NCI-H522 = test: Growth of human NCI-H522 cells at 10 uM incubated for 48 hrs by sulforhodamine B assay relative to control; conditions: NCI-H522, 48 h
K562 = test: Growth of human K562 cells at 10 uM incubated for 48 hrs by sulforhodamine B assay relative to control; conditions: K562, 48 h
OVCAR-4 = test: Growth of human OVCAR4 cells at 10 uM incubated for 48 hrs by sulforhodamine B assay relative to control; conditions: OVCAR-4, 48 h
OVCAR-5 = test: Growth of human OVCAR5 cells at 10 uM incubated for 48 hrs by sulforhodamine B assay relative to control; conditions: OVCAR-5, 48 h
SW-620 = test: Growth inhibition of human SW620 cells assessed as cell growth at 10^-7 M incubated for 48 hrs by sulforhodamine B assay relative to control; type: functional; conditions: SW-620, 48 h, read-out: Activity
NCI/ADR-RES = test: Growth inhibition of human NCI/ADR-RES cells at 10 uM incubated for 48 hrs by sulforhodamine B assay relative to control; type: functional; conditions: values are per cent of control
DU-145 = test: Growth inhibition of human DU145 cells at 10 uM incubated for 48 hrs by sulforhodamine B assay relative to control; type: functional; conditions: DU-145, 48 h, values are per cent of control
BT-549 = test: Growth inhibition of human BT549 cells at 10 uM incubated for 48 hrs by sulforhodamine B assay relative to control; type: functional; conditions: BT-549, 48 h, values are per cent of control
MDA-MB-231 = test: Growth inhibition of human MDA-MB-231 cells at 10 uM incubated for 48 hrs by sulforhodamine B assay relative to control; type: functional; conditions: MDA-MB-231, 48 h, values are per cent of control
T47D = test: Growth inhibition of human T47D cells at 10 uM incubated for 48 hrs by sulforhodamine B assay relative to control; type: functional; conditions: values are per cent of control
M14 = test: Growth of human M14 cells at 10 uM incubated for 48 hrs by sulforhodamine B assay relative to control; conditions: M14, 48 h
UACC-257 = test: Growth of human UACC257 cells at 10 uM incubated for 48 hrs by sulforhodamine B assay relative to control; conditions: UACC-257, 48 h
KM12 = test: Growth inhibition of human KM12 cells incubated for 48 hrs by sulforhodamine B assay; type: functional; conditions: KM12, 48 h
IGROV-1 = test: Growth inhibition of human IGROV1 cells assessed as cell growth at 10^-6 M incubated for 48 hrs by sulforhodamine B assay relative to control; type: functional; conditions: IGROV-1, 48 h, read-out: Activity
SK-OV-3 = test: Growth inhibition of human SKOV3 cells at 10 uM incubated for 48 hrs by sulforhodamine B assay relative to control; type: functional; conditions: SK-OV-3, 48 h, values are per cent of control
U-251 = test: Growth of human U251 cells at 10 uM incubated for 48 hrs by sulforhodamine B assay relative to control; conditions: U-251, 48 h
HT-29 [4] = test: Growth of human HT-29 cells at 10 uM incubated for 48 hrs by sulforhodamine B assay relative to control; conditions: HT-29, 48 h
Hs-578T = test: Growth inhibition of human Hs 578T cells at 10 uM incubated for 48 hrs by sulforhodamine B assay relative to control; type: functional; conditions: values are per cent of control
HOP-92 = test: Growth inhibition of human HOP92 cells at 10 uM incubated for 48 hrs by sulforhodamine B assay relative to control; type: functional; conditions: HOP-92, 48 h, values are per cent of control
SK-MEL-5 = test: Growth of human SK-MEL-5 cells at 10 uM incubated for 48 hrs by sulforhodamine B assay relative to control; conditions: SK-MEL-5, 48 h
EKVX = test: Growth of human EKVX cells at 10 uM incubated for 48 hrs by sulforhodamine B assay relative to control
SK-MEL-2 = test: Growth of human SK-MEL-2 cells at 10 uM incubated for 48 hrs by sulforhodamine B assay relative to control; conditions: SK-MEL-2, 48 h
MDA-MB-468 = test: Growth inhibition of human MDA-MB-468 cells at 10 uM incubated for 48 hrs by sulforhodamine B assay relative to control; type: functional; conditions: MDA-MB-468, 48 h, values are per cent of control
UACC-62 = test: Growth inhibition of human UACC62 cells assessed as cell growth at 10^-7 M incubated for 48 hrs by sulforhodamine B assay relative to control; type: functional; conditions: UACC-62, 48 h, read-out: Activity
NCI-H226 = test: Growth inhibition of human NCI-H226 cells at 10 uM incubated for 48 hrs by sulforhodamine B assay relative to control; type: functional; conditions: NCI-H226, 48 h, values are per cent of control
[5] = read-out: LC50 (the source's name)
[6] = read-out: pLC50 (the source's name) (converted)

SMILES	growth, % of control at 10 µM (786-0) [%]	growth at 10 µM (HL-60(TB) [1]) [%]	growth, % of control at 10 µM (OVCAR-3) [%]	growth, % of control at 10 µM (HL-60(TB) [2]) [%]	growth, % of control at 10 µM (MOLT-4) [%]	growth at 0.1 µM (HT-29 [3]) [%]	growth, % of control at 10 µM (SN12C) [%]	growth, % of control at 10 µM (RPMI-8226) [%]	growth, % of control at 10 µM (NCI-H522) [%]	growth, % of control at 10 µM (K562) [%]	growth, % of control at 10 µM (OVCAR-4) [%]	growth, % of control at 10 µM (OVCAR-5) [%]	growth at 0.1 µM (SW-620) [%]	growth, % of control at 10 µM (NCI/ADR-RES) [%]	growth, % of control at 10 µM (DU-145) [%]	growth, % of control at 10 µM (BT-549) [%]	growth, % of control at 10 µM (MDA-MB-231) [%]	growth, % of control at 10 µM (T47D) [%]	growth, % of control at 10 µM (M14) [%]	growth, % of control at 10 µM (UACC-257) [%]	further results
CCS/C(Nc1ccccc1)=C(\C#N)C(=O)Nc1ccc(OC)cc1	39.5	7	-12.1	-15.6	10.1	105	37.8	25.2	0.63	7.34	66.7	63.1	94	-0.67	33.8	40.5	44.5	25.4	15.2	58.4	GI50 (KM12; read-out: GI50): 2.8 µM; CC50 (KM12; [5]): > 100 µM; TGI (KM12; read-out: TGI): > 100 µM; GI50 (KM12; read-out: pGI50 (converted)): 2.82 µM; CC50 (KM12; [6]): > 100 µM; TGI (KM12; read-out: pTGI): > 100 µM; growth at 1 µM (IGROV-1): 79%; growth, % of control at 10 µM (SK-OV-3): 22.4%; growth, % of control at 10 µM (U-251): 16.6%; growth, % of control at 10 µM (HT-29 [4]): 6.46%; growth, % of control at 10 µM (Hs-578T): 27.4%; growth, % of control at 10 µM (HOP-92): 44.5%; growth, % of control at 10 µM (SK-MEL-5): 17.8%; growth, % of control at 10 µM (EKVX): 52.4%; growth, % of control at 10 µM (SK-MEL-2): -0.34%; growth, % of control at 10 µM (MDA-MB-468): -2.63%; growth at 0.1 µM (UACC-62): 93%; growth, % of control at 10 µM (NCI-H226): 57.9%
CCS/C(Nc1ccccc1)=C(\C#N)C(=O)N/N=C\c1ccc(Cl)cc1Cl	31.8	8	1.46	-31.4	18.3	101	34.5	9.68	1.02	7.35	56.5	72.5	92	10.8	20	45.4	39	17.8	21	51.9	GI50 (KM12; read-out: GI50): 4.04 µM; CC50 (KM12; [5]): > 100 µM; TGI (KM12; read-out: TGI): > 100 µM; GI50 (KM12; read-out: pGI50 (converted)): 4.07 µM; CC50 (KM12; [6]): > 100 µM; TGI (KM12; read-out: pTGI): > 100 µM; growth at 1 µM (IGROV-1): 84%; growth, % of control at 10 µM (SK-OV-3): 15.5%; growth, % of control at 10 µM (U-251): 19.1%; growth, % of control at 10 µM (HT-29 [4]): 9.53%; growth, % of control at 10 µM (Hs-578T): -6.44%; growth, % of control at 10 µM (HOP-92): 29.2%; growth, % of control at 10 µM (SK-MEL-5): 12.4%; growth, % of control at 10 µM (EKVX): 47.4%; growth, % of control at 10 µM (SK-MEL-2): 28.3%; growth, % of control at 10 µM (MDA-MB-468): 19.6%; growth at 0.1 µM (UACC-62): 91%; growth, % of control at 10 µM (NCI-H226): 37.7%
